Source: patent US4317775A (Hoffmann-La Roche Inc., priority 1980, dated 1982)
Where a name gives a salt, the structure may show the parent alone.

Experiments:
[1] = tested on: Streptococcus pyogenes; test: In vitro activity (MIC/MBC), Streptococcus pyogenes; assay type: cell-based; details: for MBC: read-out: Minimum Inhibitory Concentration (MBC); for MIC: read-out: Minimum Inhibitory Concentration (MIC)
Excerpt: (§1) MIC is the Minimum Inhibitory Concentration. MBC is the Minimum Bactericidal Concentration.
(§2) Results reported in Table 3(a) are reported as MIC defined above and results reported in Table 3(b) are reported as MBC defined above.

[2] = tested on: Streptococcus pneumoniae I; test: In vitro activity (MIC/MBC), Streptococcus pneumoniae I; assay type: cell-based; details: for MBC: read-out: Minimum Inhibitory Concentration (MBC); for MIC: read-out: Minimum Inhibitory Concentration (MIC)
Excerpt: as §1, §2

[3] = tested on: Staphylococcus aureus; test: In vitro activity (MIC/MBC), Staphylococcus aureus; assay type: cell-based; details: for MBC: read-out: Minimum Inhibitory Concentration (MBC); for MIC: read-out: Minimum Inhibitory Concentration (MIC)
Excerpt: as §1, §2

[4] = tested on: Escherichia coli; test: In vitro activity (MIC/MBC), Escherichia coli; assay type: cell-based; details: for MBC: read-out: Minimum Inhibitory Concentration (MBC); for MIC: read-out: Minimum Inhibitory Concentration (MIC)
Excerpt: as §1, §2

[5] = tested on: Klebsiella pneumoniae; test: In vitro activity (MIC/MBC), Klebsiella pneumoniae; assay type: cell-based; details: for MBC: read-out: Minimum Inhibitory Concentration (MBC); for MIC: read-out: Minimum Inhibitory Concentration (MIC)
Excerpt: as §1, §2

[6] = tested on: Salmonella schottmuelleri; test: In vitro activity (MIC/MBC), Salmonella schottmuelleri; assay type: cell-based; details: for MBC: Salmonella schottmuelleri, read-out: Minimum Inhibitory Concentration (MBC); for MIC: Salmonella, read-out: Minimum Inhibitory Concentration (MIC)
Excerpt: as §1, §2

[7] = tested on: Salmonella typhosa; test: In vitro activity (MIC/MBC), Salmonella typhosa; assay type: cell-based; details: Salmonella enterica; for MBC: read-out: Minimum Inhibitory Concentration (MBC), MBC, Salmonella typhosa; for MIC: read-out: Minimum Inhibitory Concentration (MIC), Salmonella typhosa
Excerpt: as §1, §2

[8] = tested on: S. pyogenes; test: In vivo activity against systemic infection in mice, S. pyogenes
Excerpt: (§3) The PD50 is the protective dose for 50% of the animals treated against a challenge organism.

[9] = tested on: S. pneumoniae I; test: In vivo activity against systemic infection in mice, S. pneumoniae I
Excerpt: as §3

[10] = tested on: E. coli; test: In vivo activity against systemic infection in mice, E. coli; details: in mg/kg
Excerpt: as §3

[11] = tested on: K. pneumoniae; test: In vivo activity against systemic infection in mice, K. pneumoniae; details: in mg/kg
Excerpt: as §3

[12] = tested on: S. schottmuelleri; test: In vivo activity against systemic infection in mice, S. schottmuelleri
Excerpt: as §3

[13] = tested on: S. typhosa; test: In vivo activity against systemic infection in mice, S. typhosa
Excerpt: as §3

[14] = in vivo; details: mouse
[15] = Stability in aqueous solution (percent retention); assay type: physicochemical; details: for Percent Retention: 6 hrs + 5° C., 192 hrs
Protocol: The stability of the compound was determined in 0.9% saline solution, 5% aqueous dextrose solution and in water, both at room temperature and/or 5° C.

[16] = tested on: S. aureus; test: In vivo activity against systemic infection in mice, S. aureus; details: in mg/kg
Excerpt: as §3

[17] = tested on: Streptococcus pneumonia II; test: In vitro activity (MIC/MBC), Streptococcus pneumonia II; assay type: cell-based; details: Streptococcus pneumoniae
Excerpt: as §1, §2

[18] = tested on: S. pneumoniae II; test: In vivo activity against systemic infection in mice, S. pneumoniae II
Excerpt: as §3

[19] = tested on: P. mirabilis; test: In vivo activity against systemic infection in mice, P. mirabilis; details: in mg/kg
Excerpt: as §3

[20] = 5% dextrose in water, 2.10 mg/ml, RT
[21] = 5% dextrose in water, 2.20 mg/ml, 5° C.
[22] = 5% dextrose in water, 30 mg/ml, RT
[23] = 5% dextrose in water, 33 mg/ml, 5° C.
[24] = aqueous concentrate, 155 mg/ml, 5° C.

CC1(C)S[C@@H]2[C@H](NC(=O)[C@H](NC3CCCO3)c3ccc(O)cc3)C(=O)N2[C@H]1C(=O)O (relative stereo) [Compound I, {2S-[2α,5α,6β(S*)]}-6-{[2-tetrahydrofuranylamino(4-hydroxyphenyl)acetyl]amino}-3,3-dimethyl-7-oxo-4-thia-1-azabicyclo[3.2.0]heptane-2-carboxylic acid sodium salt]
MBC [1]: 2.84 µg/mL | MIC [1]: 0.022 µg/mL | MBC [2]: 0.022 µg/mL | MIC [2]: 0.022 µg/mL | MBC [3]: 0.177 µg/mL | MIC [3]: 0.177 µg/mL | MBC [4]: 5.69 µg/mL | MIC [4]: 5.69 µg/mL | MBC [5]: 0.71 µg/mL | MIC [5]: 0.71 µg/mL | MBC [6]: 1.42 µg/mL | MIC [6]: 0.71 µg/mL | MBC [7]: 0.35 µg/mL | MIC [7]: 0.35 µg/mL | PD50 ([8]; oral): 3.8 mg/kg | PD50 ([8]; subcutaneous): 7 mg/kg | PD50 ([9]; oral): 1.5 mg/kg | PD50 ([9]; subcutaneous): 0.7 mg/kg | PD50 ([10]; oral): 23.8 | PD50 ([10]; subcutaneous): 8.2 | PD50 ([11]; oral): 9.9 | PD50 ([11]; subcutaneous): 3.8 | PD50 ([12]; oral): 5.4 mg/kg | PD50 ([12]; subcutaneous): 2.4 mg/kg | PD50 ([13]; oral): 8 mg/kg | PD50 ([13]; subcutaneous): 7.3 mg/kg | LD50 ([14]; ip): 3220 mg/kg | LD50 ([14]; po): 9100 mg/kg | LD50 ([14]; sc): 4550 mg/kg

CC1(C)S[C@@H]2[C@H](NC(=O)[C@@H](c3ccc(O)cc3)N(C3CCCCO3)C3CCCCO3)C(=O)N2[C@H]1C(=O)O (relative stereo) [Compound II, {2S-[2α,5α,6β(S*)]}-6-[bis(tetrahydro-2-H-pyran-2-yl)amino]{[(4-hydroxyphenyl)acetyl]amino}-3,3-dimethyl-7-oxo-4-thia-1-azabicyclo[3.2.0]heptane3-carboxylic acid sodium salt]
remaining at 24 h ([15]; 0.9% saline, 2.20 mg/ml, 5° C.): 100% | remaining at 48 h ([15]; 0.9% saline, 2.20 mg/ml, 5° C.): 100% | remaining at 6 h ([15]; 0.9% saline, 2.25 mg/ml, RT): 96% | Percent Retention ([15]; 0.9% saline, 2.25 mg/ml, RT): 98% | remaining at 6 h ([15]; 0.9% saline, 2.30 mg/ml, RT): 96% | remaining at 24 h ([15]; 0.9% saline, 2.30 mg/ml, RT): 91% | remaining at 48 h ([15]; 0.9% saline, 2.30 mg/ml, RT): 84% | remaining at 6 h ([15]; 0.9% saline, 29.1 mg/ml, RT): 97% | time for which 90% of potency was maintained ([15]; 0.9% saline, 0.2% solution, 5° C.): ≥ 192 h | time for which 90% of potency was maintained ([15]; 0.9% saline, 0.2% solution, room temperature): about 24 hours | time for which 90% of potency was maintained ([15]; 0.9% saline, 3% solution, 5° C.): ≥ 192 h | time for which 90% of potency was maintained ([15]; 0.9% saline, 3% solution, room temperature): less than 24 hours | remaining at 24 h ([15]; 0.9% saline, 31. mg/ml, 5° C.): 100% | remaining at 48 h ([15]; 0.9% saline, 31. mg/ml, 5° C.): 100% | remaining at 6 h ([15]; 0.9% saline, 34. mg/ml, RT): 97% | remaining at 24 h ([15]; 0.9% saline, 34. mg/ml, RT): 85% | remaining at 48 h ([15]; 0.9% saline, 34. mg/ml, RT): 76% | Percent Retention ([15]; 5% Dextrose in Water, 2.10 mg/ml, RT): 73% | Percent Retention ([15]; 5% Dextrose in Water, 31 mg/ml, RT): 81% | remaining at 6 h [15, 20]: 95% | remaining at 24 h [15, 20]: 89% | remaining at 48 h [15, 20]: 71% | remaining at 24 h [15, 21]: 95% | remaining at 48 h [15, 21]: 91% | remaining at 6 h [15, 22]: 96% | remaining at 24 h [15, 22]: 92% | remaining at 48 h [15, 22]: 83% | remaining at 6 h ([15]; 5% dextrose in water, 31 mg/ml, RT): 100% | remaining at 24 h [15, 23]: 94% | remaining at 48 h [15, 23]: 84% | time for which 90% of potency was maintained ([15]; 5% dextrose in water, 0.2% solution, 5° C.): 48 h | time for which 90% of potency was maintained ([15]; 5% dextrose in water, 0.2% solution, room temperature): about 24 hours | time for which 90% of potency was maintained ([15]; 5% dextrose in water, 3% solution, 5° C.): less than 48 hours | time for which 90% of potency was maintained ([15]; 5% dextrose in water, 3% solution, room temperature): about 24 hours | remaining at 24 h [15, 24]: 100% | remaining at 48 h [15, 24]: 100% | MBC [1]: 6.31 µg/mL | MIC [1]: 0.39 µg/mL | MBC [2]: 0.049 µg/mL | MIC [2]: 0.049 µg/mL | MBC [3]: 0.098 µg/mL | MIC [3]: 0.098 µg/mL | MBC [4]: 3.94 µg/mL | MIC [4]: 3.94 µg/mL | MBC [5]: 0.98 µg/mL | MIC [5]: 0.09 µg/mL | MBC [6]: 0.98 µg/mL | MIC [6]: 0.98 µg/mL | MBC [7]: 0.12 µg/mL | MIC [7]: 0.12 µg/mL | PD50 ([8]; oral): 1.9 mg/kg | PD50 ([8]; subcutaneous): 3.4 mg/kg | PD50 ([9]; oral): 0.7 mg/kg | PD50 ([9]; subcutaneous): 0.7 mg/kg | PD50 ([10]; oral): 23 | PD50 ([10]; subcutaneous): 18 | PD50 ([11]; oral): 8.6 | PD50 ([11]; subcutaneous): 5.7 | PD50 ([12]; oral): 1.9 mg/kg | PD50 ([12]; subcutaneous): 5.7 mg/kg | PD50 ([13]; oral): 3.6 mg/kg | PD50 ([13]; subcutaneous): 1.4 mg/kg | PD50 ([16]; subcutaneous): 0.5 | LD50 ([14]; ip): 6310 mg/kg | LD50 ([14]; po): > 6310 mg/kg | LD50 ([14]; sc): 4460 mg/kg

CCC1CC(F)C(N(C2OC(CC)CC2F)[C@@H](C(=O)N[C@@H]2C(=O)N3[C@@H]2SC(C)(C)[C@@H]3C(=O)O)c2ccc(O)cc2)O1 (relative stereo) [Compound IV, {2S-[2α,5α,6β(S*)]}-6-{bis[5-ethyl-3-fluoro-2-tetrahydrofuranylamino-(4-hydrophenyl)-acetyl]amino}-3,3-dimethyl-7-oxo-4-thia-1-azabicyclo-[3.2.0]heptane-2-carboxylic acid sodium salt]
MBC [1]: > 0.218 µg/mL | MIC [1]: 0.027 µg/mL | MBC [3]: 0.055 µg/mL | MIC [3]: 0.055 µg/mL | MBC [4]: 3.5 µg/mL | MIC [4]: 3.5 µg/mL | MBC [5]: 0.437 µg/mL | MIC [5]: 0.218 µg/mL | MBC ([17]; MBC, read-out: Minimum Inhibitory Concentration (MBC)): 0.027 µg/mL | MIC ([17]; read-out: Minimum Inhibitory Concentration (MIC)): 0.013 µg/mL | PD50 ([8]; oral): 6 mg/kg | PD50 ([8]; subcutaneous): 4.4 mg/kg | PD50 ([9]; oral): 0.7 mg/kg | PD50 ([9]; subcutaneous): 0.9 mg/kg | PD50 ([10]; oral): 22.1 | PD50 ([10]; subcutaneous): 10.4 | PD50 ([11]; oral): 4.8 | PD50 ([11]; subcutaneous): 2.4 | PD50 ([16]; oral): 1.2 | PD50 ([16]; subcutaneous): 0.34 | PD50 ([18]; oral): 0.7 mg/kg | PD50 ([18]; subcutaneous): 0.5 mg/kg | PD50 ([19]; oral): 1.6 | PD50 ([19]; subcutaneous): 0.4 | LD50 ([14]; ip): 3520 mg/kg | LD50 ([14]; po): 3960 mg/kg | LD50 ([14]; sc): 2800 mg/kg
